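Step 1: Grow cells in 96-well plates. Step 2: Expose to compound for 48 hours at 5 concentrations. Step 3: Interpolate endpoints linearly; if unreached, use highest concentration. GI50 marks 50% less growth.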 Activity calls are given as the source filed them. No stated cut-off is given here; in the data, active = GI50 up to about 1.1 µM and inactive = higher.
Tests used:
Assay in all cases: DTP human tumour cell line panel, 48 h
[1] = test system: HT-29
[2] = test system: NCI-H226
[3] = test system: HCT-116
[4] = test system: A549
[5] = test system: M19-MEL
[6] = test system: NCI-H23
[7] = test system: SF-268
[8] = test system: OVCAR-3
[9] = test system: A498
[10] = test system: UACC-257
[11] = test system: M14
[12] = test system: CCRF-CEM
[13] = test system: DMS-273
[14] = test system: HOP-62
[15] = test system: HL-60
[16] = test system: SF-539
[17] = test system: HCT-15
[18] = test system: U-251
[19] = test system: CAKI-1
[20] = test system: HCC 2998
[21] = test system: HOP-92
[22] = test system: LOX IMVI
[23] = test system: SNB-78
[24] = test system: ACHN
[25] = test system: SNB-19
[26] = test system: DLD-1
[27] = test system: COLO 205
[28] = test system: EKVX
[29] = test system: SN12C
[30] = test system: UACC-62
[31] = test system: OVCAR-4
[32] = test system: HOP-18
[33] = test system: RXF 393
[34] = test system: UO-31
[35] = test system: NCI-H460
[36] = test system: NCI-H522
[37] = test system: RXF 631
[38] = test system: SK-MEL-2
[39] = test system: K562
[40] = test system: SF-295
[41] = test system: Malme-3M
[42] = test system: SK-OV-3
[43] = test system: TK-10
[44] = test system: DMS-114
[45] = test system: SK-MEL-28
[46] = test system: SK-MEL-5
[47] = test system: SNB-75
[48] = test system: 786-0
[49] = test system: OVCAR-5
[50] = test system: KM-20L2
[51] = test system: KM12
[52] = test system: SW-620
[53] = test system: IGROV-1
[54] = test system: OVCAR-8
[55] = test system: LXFL 529
[56] = test system: SR
[57] = test system: XF498

## CC(/C(=N/NC(=O)C(N)=O)c1c(Cl)ccc(Cl)c1O)C1(O)C(=O)Nc2ccccc21 (stereo not given)
[1]
  GI50: 39.5 µM (inactive)
[2]
  GI50: 29.3 µM (inactive)
[3]
  GI50: 41 µM (inactive)
[4]
  GI50: 50.2 µM (inactive)
[5]
  GI50: 40.4 µM (inactive)
[6]
  GI50: 50.6 µM (inactive)
[7]
  GI50: > 100 µM (inactive)
[8]
  GI50: 28.6 µM (inactive)
[9]
  GI50: 17.8 µM (inactive)
[10]
  GI50: 53.3 µM (inactive)
[11]
  GI50: 68.7 µM (inactive)
[12]
  GI50: 31.8 µM (inactive)
[13]
  GI50: 27.4 µM (inactive)
[14]
  GI50: > 100 µM (inactive)
[15]
  GI50: 26 µM (inactive)
[16]
  GI50: 32 µM (inactive)
[17]
  GI50: 34.1 µM
[18]
  GI50: 50.1 µM (inactive)
[19]
  GI50: 42.1 µM (inactive)
[20]
  GI50: 65.3 µM (inactive)
[21]
  GI50: 27.8 µM (inactive)
[22]
  GI50: 30.1 µM (inactive)
[23]
  GI50: > 100 µM (inactive)
[24]
  GI50: 26.5 µM (inactive)
[25]
  GI50: 72.4 µM (inactive)
[26]
  GI50: 35.3 µM (inactive)
[27]
  GI50: 23.2 µM (inactive)
[28]
  GI50: 43.3 µM (inactive)
[29]
  GI50: 70.3 µM (inactive)
[30]
  GI50: 49.1 µM (inactive)
[31]
  GI50: 29.6 µM (inactive)
[32]
  GI50: 34.8 µM (inactive)
[33]
  GI50: 55.3 µM (inactive)
[34]
  GI50: 38 µM (inactive)
[35]
  GI50: 28.3 µM (inactive)
[36]
  GI50: 19.2 µM (inactive)
[37]
  GI50: 32.1 µM (inactive)
[38]
  GI50: 33.3 µM (inactive)
[39]
  GI50: 31 µM (inactive)
[40]
  GI50: > 100 µM (inactive)
[41]
  GI50: 64.9 µM (inactive)
[42]
  GI50: > 100 µM (inactive)
[43]
  GI50: 46.9 µM (inactive)
[44]
  GI50: 34.4 µM (inactive)
[45]
  GI50: > 100 µM (inactive)
[46]
  GI50: 34.6 µM (inactive)
[47]
  GI50: 28.6 µM (inactive)
[48]
  GI50: 57 µM (inactive)
[49]
  GI50: 34.8 µM (inactive)
[50]
  GI50: 56.2 µM (inactive)
[51]
  GI50: 30.4 µM (inactive)
[52]
  GI50: 41.7 µM (inactive)
[53]
  GI50: 29.9 µM (inactive)
[54]
  GI50: 29.7 µM (inactive)
[55]
  GI50: 32.9 µM (inactive)

## N#Cc1ccccc1NC(=O)C(=O)C(C(=O)c1ccncc1)C1OC(=O)c2ccccc21 (stereo not given)
[1]
  GI50: > 100 µM (inactive)
[2]
  GI50: > 100 µM (inactive)
[3]
  GI50: > 100 µM (inactive)
[56]
  GI50: > 100 µM (inactive)
[4]
  GI50: > 100 µM (inactive)
[5]
  GI50: > 100 µM (inactive)
[6]
  GI50: > 100 µM (inactive)
[7]
  GI50: > 100 µM (inactive)
[8]
  GI50: > 100 µM (inactive)
[9]
  GI50: > 100 µM (inactive)
[10]
  GI50: > 100 µM (inactive)
[11]
  GI50: > 100 µM (inactive)
[12]
  GI50: 79.3 µM (inactive)
[14]
  GI50: > 100 µM (inactive)
[15]
  GI50: > 100 µM (inactive)
[16]
  GI50: > 100 µM (inactive)
[17]
  GI50: > 100 µM
[18]
  GI50: > 100 µM (inactive)
[19]
  GI50: > 100 µM (inactive)
[20]
  GI50: > 100 µM (inactive)
[21]
  GI50: > 100 µM (inactive)
[22]
  GI50: > 100 µM (inactive)
[23]
  GI50: > 100 µM (inactive)
[24]
  GI50: > 100 µM (inactive)
[25]
  GI50: > 100 µM (inactive)
[26]
  GI50: > 100 µM (inactive)
[27]
  GI50: > 100 µM (inactive)
[28]
  GI50: > 100 µM (inactive)
[29]
  GI50: > 100 µM (inactive)
[30]
  GI50: > 100 µM (inactive)
[31]
  GI50: > 100 µM (inactive)
[32]
  GI50: > 100 µM (inactive)
[33]
  GI50: > 100 µM (inactive)
[34]
  GI50: > 100 µM (inactive)
[35]
  GI50: > 100 µM (inactive)
[36]
  GI50: > 100 µM (inactive)
[37]
  GI50: > 100 µM (inactive)
[57]
  GI50: > 100 µM (inactive)
[39]
  GI50: > 100 µM (inactive)
[40]
  GI50: > 100 µM (inactive)
[41]
  GI50: > 100 µM (inactive)
[42]
  GI50: > 100 µM (inactive)
[43]
  GI50: > 100 µM (inactive)
[44]
  GI50: > 100 µM (inactive)
[45]
  GI50: > 100 µM (inactive)
[46]
  GI50: > 100 µM (inactive)
[47]
  GI50: > 100 µM (inactive)
[48]
  GI50: > 100 µM (inactive)
[49]
  GI50: > 100 µM (inactive)
[50]
  GI50: > 100 µM (inactive)
[51]
  GI50: > 100 µM (inactive)
[52]
  GI50: > 100 µM (inactive)
[53]
  GI50: > 100 µM (inactive)
[54]
  GI50: > 100 µM (inactive)
[55]
  GI50: > 100 µM (inactive)
